Tests used:
HepG2 cells = assay: In vitro hepatotoxicity on HepG2 cell line (MTT); assay type: cell-based; conditions: 5, 15, 50 µM, 24 h, compared to donepezil
Description: PC12 cell and HepG2 cell (human hepatocellular liver carcinoma cell line purchased from Institute of Materia of Chinese Academy of Medical Science), were grown in DMEM supplemented with 10% FBS at 37 °C in a humidified atmosphere containing 5% CO2. For the experiments, cells (6 × 10^3 cells/well) were seeded in 96-well plate in complete medium. […]

[1] = biological target: T1, AChE (EC 3.1.1.7) from human (Homo sapiens, UniProt P22303); assay: human AChE inhibition assay, Ellman's method; assay type: biochemical; conditions: for IC50: human AChE, mean ± SEM, read-out: huAChE IC50
T1 construct: purchased Sigma-Aldrich
Description: (§1) ; The inhibitory activities of the target compounds towards AChE (from Electrophorus electricus (electric eeAChE, Sigma-Aldrich) and horse serum BChE (eqBChE, Sigma-Aldrich) or human AChE – huAChE; human BuChE – huBuChE (huAChE, huBuChE, Sigma-Aldrich) were measured by Ellman’s method. In 96-well plates, a mixture of phosphate buffer (0.1 M, pH 8.0, […]), 5,5′-dithiobis-2-nitrobenzoic acid (DTNB, 60 µL), acetylcholinestrase or butyrylcholinesterase (20 µL, 5 IU/mL) and different concentration of the compound solution (30 µL) was pre-incubated for 5 min followed by the addition of the substrate (acetylthiocholine iodide or butyrylthiocholine iodide, 20 µL). Changes in absorbance were measured at 412 nm by using microplate reader (Thermo, Varioskan Flash 3001, USA). The measurement of each concentration for each compound was detected in triplicate. GraphPad Prism 6.0 (GraphPad Software, Inc., La Jolla, CA) was used for data processing. The inhibition curve was fitted by plotting percentage enzyme activity (100% for the reference) versus the logarithm of the concentration of tested compound. The half-maximal inhibitory concentration (IC50) values were calculated according to the inhibition curve and the data were shown in the layout of mean ± SEM by GraphPad Prism 6.0.

[2] = DPPH radical scavenging activity; conditions: at 1 mM
Description: Compounds 15b and 15j were selected to be evaluated for their 1,1-diphenyl-2-picrylhydrazyl radical scavenging activity (DPPH) compared with trolox as reference compound[12].
Corresponding Authors: clarissa0710@163.com (Y. Chen); sunhaopeng@163.com (H. P.
1.1. Inhibition of self-induced Aβ1–42 aggregation
Inhibitory effect of the compounds on self -induced Aβ1–42 aggregation was determined through a thioflavin T (ThT)-(T3516, Sigma-Aldrich) binding assay.
Firstly, aliquots of 2 μL of Aβ 1–42 (AS-64129–05 Anaspec Inc.) containing 2 mg/mL HFIP (1,1,1,3,3,3-hexafluoro-2-propanol, 52517 (Sigma-Aldrich) were stocked in DMSO).
Then, they were diluted with 0.215M sodium phosphate buffer (pH 8.0) to the final concentration of 500 μM. Test compounds were dissolved in DMSO and then prepared at a concentration of 50 μM by the buffer. Resveratrol was used as a positive control. […]
Fluorescence intensity was read (excitation wavelength 450 nm, emission wavelength 485 nm) on a microplate reader (Thermo, Varioskan Flas h 3001, USA).
The calculation of the inhibitory rate of Aβ 1–42 self-induced aggregation was performed using the following equation: (1 -IFi/IFc) × 100 %. IFi and IFc were the fluorescence intensities measured in the presence and absence of inhibitors, respe ctively, after subtracting the background fluorescence of the 5mM ThT solution. Each compound was measured in triplicate. […]

PC12 cells = assay: Neuroprotection against H2O2-induced cell death in PC12 cells; assay type: cell-based; conditions: PC12 cells pre-treated 24 h, 800 µM H2O2
Description: We evaluated the cytoprotective effects of 15b and 15j on H2O2-induced cell damage. Treatment with 800 µM H2O2 for 24 h caused over 55% death rate of PC12 cells compared with the control group (Supplementary Figure S2(A)).
Figure S1. (A) The inhibitory effect of 15b and 15j on i Aβ1-42 self-aggregation. (B) […]
1.3. Neuroprotection assay against H2O2-induced cell death in PC12 cells Cytotoxicity was determined by using 3-(4,5-dimethylthiazol-2-yl)-2,5-diphenyltetrazoliumbromide (MTT) assay. The PC-12 cell line was purchased from Cell Bank of the Chinese Academy of Sciences (Shanghai, China). MTT was purchased from Sigma (M2128, St. Louis, MO). It was dissolved in phosphate buffered saline (PBS) to a stock concentration of 5 mg mL-1 and stored at - 20 °C. PC-12 cells were plated in 96-well plates, raised to a population of 1 × 10^4 cells per well, and incubated overnight. […]
Then the solution was removed and 150.0 μL of DMSO was added into each well to dissolve the MTT formazan crystals. […] The absorbance values (OD value) were read at 570 nm by microplate reader (Thermo, Varioskan Flash 3001, USA). The inhibitory rate for each concentration of the test compound was calculated by the equation as follows: […]
Here, ODtest, ODblank, and ODcontrol stand for the OD value from test compound, background, and DMSO, respectively. The IC50 values were calculated by GraphPad […]

[3] = biological target: T2, BChE (EC 3.1.1.8) from human (Homo sapiens, UniProt P06276); assay: human BChE inhibition assay, Ellman's method; assay type: biochemical; conditions: mean ± SEM, read-out: huBChE IC50
T2 construct: purchased Sigma-Aldrich
Description: as §1

T1 sequence (P22303 32-614): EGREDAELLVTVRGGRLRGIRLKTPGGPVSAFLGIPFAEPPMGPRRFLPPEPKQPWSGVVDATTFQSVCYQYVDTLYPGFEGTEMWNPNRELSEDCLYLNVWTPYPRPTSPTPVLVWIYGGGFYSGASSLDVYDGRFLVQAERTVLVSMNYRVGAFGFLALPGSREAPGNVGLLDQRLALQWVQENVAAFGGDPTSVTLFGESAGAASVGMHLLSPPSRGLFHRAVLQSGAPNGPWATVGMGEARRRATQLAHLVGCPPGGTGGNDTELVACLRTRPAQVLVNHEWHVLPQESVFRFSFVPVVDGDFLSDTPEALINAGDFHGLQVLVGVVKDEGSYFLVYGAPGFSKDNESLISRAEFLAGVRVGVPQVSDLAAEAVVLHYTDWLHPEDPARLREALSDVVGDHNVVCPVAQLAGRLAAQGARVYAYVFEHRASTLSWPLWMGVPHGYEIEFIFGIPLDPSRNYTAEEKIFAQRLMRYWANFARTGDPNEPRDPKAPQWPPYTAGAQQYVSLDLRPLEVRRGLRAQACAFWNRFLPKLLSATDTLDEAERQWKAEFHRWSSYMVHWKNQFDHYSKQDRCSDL
T2 sequence (P06276 29-602): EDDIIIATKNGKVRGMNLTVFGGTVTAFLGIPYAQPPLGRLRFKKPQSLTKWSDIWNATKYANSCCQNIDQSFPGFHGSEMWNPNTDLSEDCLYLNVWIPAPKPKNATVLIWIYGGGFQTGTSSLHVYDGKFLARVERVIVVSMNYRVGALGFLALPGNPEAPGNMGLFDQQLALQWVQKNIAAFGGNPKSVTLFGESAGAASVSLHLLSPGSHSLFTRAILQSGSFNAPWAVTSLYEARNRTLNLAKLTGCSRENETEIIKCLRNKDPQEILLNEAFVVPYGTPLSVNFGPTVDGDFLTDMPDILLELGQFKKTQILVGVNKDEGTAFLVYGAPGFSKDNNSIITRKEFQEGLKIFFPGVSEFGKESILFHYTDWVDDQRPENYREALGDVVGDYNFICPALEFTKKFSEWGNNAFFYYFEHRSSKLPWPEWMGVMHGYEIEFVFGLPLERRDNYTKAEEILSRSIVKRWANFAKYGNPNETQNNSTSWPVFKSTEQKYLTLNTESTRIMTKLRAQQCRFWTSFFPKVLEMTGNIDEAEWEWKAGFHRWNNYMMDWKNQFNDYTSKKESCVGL

Structure (SMILES)	toxicity on HepG2 cell viability (HepG2 cells)	IC50 [1] [µM]	DPPH inhibitory rate [2] [%]	cytoprotective effect on H2O2-induced cell damage (PC12 cells)	IC50 [3] [µM]	SI (selectivity index = AChE IC50/BChE IC50) ([1]; huAChE IC50 / huBChE IC50)
Cc1ccccc1CN1CCC(CNS(=O)(=O)c2ccc3c(c2)n(C)c(=O)n3C)CC1 [Compound 15b, 1,3-dimethyl-N-((1–(2-methylbenzyl)piperidin-4-yl)methyl)-2-oxo-2,3-dihydro-1H-benzo[d]imidazole-5-sulphonamide]	low toxicity on cell viability	1.49 ± 0.43	12.2	the mortality rate of PC12 cells caused by H2O2 was reduced	1.33 ± 0.55	–
Cn1c(=O)n(C)c2cc(S(=O)(=O)NCC3CCN(Cc4cccc(Br)c4)CC3)ccc21 [Compound 15j, N-((1–(3-bromobenzyl)piperidin-4-yl)methyl)-1,3-dimethyl-2-oxo-2,3-dihydro-1H-benzo[d]imidazole-5-sulphonamide]	low toxicity on cell viability	1.25 ± 0.48	6.3	the mortality rate of PC12 cells caused by H2O2 was reduced	0.66 ± 0.22	1.89

Reference: publication PMC6968383, “Design, synthesis, in vitro and in vivo evaluation of benzylpiperidine-linked 1,3-dimethylbenzimidazolinones as cholinesterase inhibitors against Alzheimer’s disease” (Journal of Enzyme Inhibition and Medicinal Chemistry, 2019)
